The results in this text go back to US20260250290A1 (BRISTOL-MYERS SQUIBB COMPANY, priority 2023, published 2026).

Several values for one entry are separate records, joined by “and”; a condition that tells them apart may be missing. Equal entries are not always repeated.

For this experiment, the target named is T1, full length SGK1 (Homo sapiens, UniProt O00141).
T1 construct: 125 μM full length SGK1 (Life Technologies Part #PR7358A); purchased Life Technologies PR7358A
T1 sequence (O00141 1-431): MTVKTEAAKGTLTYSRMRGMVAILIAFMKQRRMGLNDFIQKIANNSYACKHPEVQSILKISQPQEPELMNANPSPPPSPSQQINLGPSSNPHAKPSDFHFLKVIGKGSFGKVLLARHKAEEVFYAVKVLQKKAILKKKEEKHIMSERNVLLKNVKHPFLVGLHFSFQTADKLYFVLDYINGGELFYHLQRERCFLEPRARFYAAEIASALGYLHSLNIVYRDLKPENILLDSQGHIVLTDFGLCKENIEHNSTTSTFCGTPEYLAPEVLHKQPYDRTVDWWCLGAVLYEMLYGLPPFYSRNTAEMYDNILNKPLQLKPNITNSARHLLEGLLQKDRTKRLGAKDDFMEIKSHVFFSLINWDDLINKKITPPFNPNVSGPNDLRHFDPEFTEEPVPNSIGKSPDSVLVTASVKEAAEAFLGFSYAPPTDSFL
As to the kind of experiment: SGK1 inhibition Assay A (Caliper LabChip electrophoretic separation of fluorescent peptide substrate and phosphorylated product). It counts as biochemical. The following applies: Assay A; 20 μM ATP, 40 min incubation; read-out: SGK1 IC50.

Turning to `COC(=O)N1CC=C(c2cc(N3CCC[C@@H](NC(=O)c4sc(Cl)cc4OC4CCN(C5COC5)CC4)C3)c3c(N)ncnn23)C1` [Example 572, Methyl (R)-3-(4-amino-5-(3-(5-chloro-3-((1-(oxetan-3-yl)piperidin-4-yl)oxy)thiophene-2-carboxamido)piperidin-1-yl)pyrrolo[2,1-f][1,2,4]triazin-7-yl)-2,5-dihydro-1H-pyrrole-1-carboxylate], the 50% inhibitory concentration (IC50) (in general, the point on the concentration scale where inhibition reaches its midpoint) is 3 nM.

`COC(=O)N1CC=C(c2cc(N3CCC[C@@H](NC(=O)c4sc(Cl)cc4OC4CN(C5CCOCC5)C4)C3)c3c(N)ncnn23)C1` [Example 573, Methyl (R)-3-(4-amino-5-(3-(5-chloro-3-((1-(tetrahydro-2H-pyran-4-yl)azetidin-3-yl)oxy)thiophene-2-carboxamido)piperidin-1-yl)pyrrolo[2,1-f][1,2,4]triazin-7-yl)-2,5-dihydro-1H-pyrrole-1-carboxylate]: the IC50 was found to be 73 nM.

Consider `CC(=O)N1CC=C(c2cc(N3CCC[C@@H](NC(=O)c4sc(Cl)cc4OC4CN(C)C4)C3)c3c(N)ncnn23)C1` [Example 576, (R)-N-(1-(7-(1-acetyl-2,5-dihydro-1H-pyrrol-3-yl)-4-aminopyrrolo[2,1-f][1,2,4]triazin-5-yl)piperidin-3-yl)-5-chloro-3-((1-methylazetidin-3-yl)oxy)thiophene-2-carboxamide], for which the IC50 is 7 nM.

On to `CC(=O)N1CC=C(c2cc(N3CCC[C@@H](NC(=O)c4sc(Cl)cc4OC4CN(C(C)C)C4)C3)c3c(N)ncnn23)C1` [Example 577, (R)-N-(1-(7-(1-acetyl-2,5-dihydro-1H-pyrrol-3-yl)-4-aminopyrrolo[2,1-f][1,2,4]triazin-5-yl)piperidin-3-yl)-5-chloro-3-((1-isopropylazetidin-3-yl)oxy)thiophene-2-carboxamide], for which the IC50 is 6 nM.

Consider `CC(=O)N1CC=C(c2cc(N3CCC[C@@H](NC(=O)c4sc(Cl)cc4OC4CN(CCO)C4)C3)c3c(N)ncnn23)C1` [Example 578, (R)-N-(1-(7-(1-acetyl-2,5-dihydro-1H-pyrrol-3-yl)-4-aminopyrrolo[2,1-f][1,2,4]triazin-5-yl)piperidin-3-yl)-5-chloro-3-((1-(2-hydroxyethyl)azetidin-3-yl)oxy)thiophene-2-carboxamide], for which the IC50 stood at 17 nM.

For the compound `CC(=O)N1CC=C(c2cc(N3CCC[C@@H](NC(=O)c4sc(Cl)cc4OC4CCN(C)CC4)C3)c3c(N)ncnn23)C1` [Example 579, (R)-N-(1-(7-(1-acetyl-2,5-dihydro-1H-pyrrol-3-yl)-4-aminopyrrolo[2,1-f][1,2,4]triazin-5-yl)piperidin-3-yl)-5-chloro-3-((1-methylpiperidin-4-yl)oxy)thiophene-2-carboxamide], the IC50 was 4 nM.

In the case of `CC(=O)N1CC=C(c2cc(N3CCC[C@@H](NC(=O)c4sc(Cl)cc4OC4CC5(CNC5)C4)C3)c3c(N)ncnn23)C1` [Example 580], the IC50 stood at 5 nM.

With `CC(=O)N1CC=C(c2cc(N3CCC[C@@H](NC(=O)c4sc(Cl)cc4OC4CC5(C4)CN(C)C5)C3)c3c(N)ncnn23)C1` [Example 581, (R)-N-(1-(7-(1-acetyl-2,5-dihydro-1H-pyrrol-3-yl)-4-aminopyrrolo[2,1-f][1,2,4]triazin-5-yl)piperidin-3-yl)-5-chloro-3-((2-methyl-2-azaspiro[3.3]heptan-6-yl)oxy)thiophene-2-carboxamide], the IC50 stood at 4 nM.

As for `CC(=O)N1CC=C(c2cc(N3CCC[C@@H](NC(=O)c4sc(Cl)cc4OC4CCN(C5COC5)CC4)C3)c3c(N)ncnn23)C1` [Example 582], the IC50 amounted to 10 nM.

As for `CN(C)CCOc1cc(Cl)sc1C(=O)N[C@@H]1CCCN(c2cc(-c3cncnc3)n3ncnc(N)c23)C1` [Example 583, (R)-N-(1-(4-amino-7-(pyrimidin-5-yl)pyrrolo[2,1-f][1,2,4]triazin-5-yl)piperidin-3-yl)-5-chloro-3-(2-(dimethylamino)ethoxy)thiophene-2-carboxamide], the IC50 is 16 nM and 26 nM.

With `Nc1ncnn2c(-c3cncnc3)cc(N3CCC[C@@H](NC(=O)c4sc(Cl)cc4OC4CCN(C5COC5)CC4)C3)c12` [Example 584], the IC50 is 26 nM.
